Data reported in patent publication US20080146626A1, “USE OF EPOTHILONES IN THE TREATMENT OF OSTEOPOROSIS AND RELATED DISEASES” (priority 2006, published 2008).
Values joined by “and” are separate entries in the source; they are usually repeats but may differ in a detail not shown here. Identical values can stand only once.

Legend:
human osteoclasts [1] = experiment: cytotoxicity in human osteoclast activity assay (luminescence released from dying cells); details: day 10; for Cytotoxicity, % compared with baseline group: baseline mean = 100%
Protocol: (§1) The bone resorption assay is performed according to the above described Standard Operation Procedure. Shortly, human bone marrow-derived stem cells are suspended to culture medium and allowed to attach to bovine bone slices. The bone slices are transferred into 96-well tissue culture plates containing culture medium with appropriate amounts of important growth factors favoring osteoclast differentiation, including M-CSF, RANK-ligand and TGF-beta. The cells are incubated in a CO2 incubator in humidified atmosphere of 95% air and 5% carbon dioxide at 37° C. At day 7 when osteoclast differentiation is completed, the culture medium is replaced with culture medium containing conditions favoring osteoclast activity, and the test compounds are added. The cell culture is continued for an additional three days, during which the formed mature osteoclasts are allowed to resorb bone in the presence of vehicle, control inhibitor (E64) or test compounds at different concentrations. Tartrate-resistant acid phosphatase isoform 5b activity (TRACP 5b) is measured from the culture medium collected at day 7 using the BoneTRAP® assay (SBA-Sciences, Oulu, Finland). Medium TRACP 5b activity describes the number of osteoclasts formed in each well during the differentiation period. At the end of the culture period, C-terminal cross-linked telopeptides of type I collagen (CTX) released from the bone slices are quantitated as an index of bone resorption using CrossLaps® for culture assay (Nordic Bioscience, Herlev, Denmark). The results are expressed as the resorption index (CTX at day 10/TRACP 5b at day 7), which describes the mean activity of a single osteoclast. When necessary, the ToxiLight® assay (Cambrex, East Rutherford, N.J., USA) is used to detect cytotoxic effects of test compounds.
Two separate experiments were performed in this study, an osteoclast differentiation assay and an osteoclast activity assay. In the osteoclast differentiation assay, osteoclast precursor cells were cultured for 7 days in the presence of the test compound, and TRACP 5b released into the culture medium was determined at day 7 as an index of the number of osteoclasts formed. Cytotoxicity was determined by quantitating the amount of dying cells from the culture medium at day 2. In the osteoclast activity assay, the test compounds were added after osteoclast differentiation was completed at day 7, and the mature osteoclasts were cultured for an additional 3 days, allowing them to resorb bone. […] Medium CTX was measured at day 10 to quantitate bone resorption during days 7-10, and the results are expressed as the resorption index CTX at day 10/TRACP 5b at day 7, which describes the mean resorbing activity of a single osteoclast. Cytotoxicity was determined by quantitating the amount of dying cells from the culture medium at day 10.
The test compounds were added after osteoclast differentiation was completed at day 7, and the mature osteoclasts were cultured for an additional 3 days, allowing them to resorb bone. […] Medium CTX was measured at day 10 to quantitate bone resorption during days 7-10, and the results are expressed as the resorption index CTX at day 10/TRACP 5b at day 7, which describes the mean osteoclast activity. Cytotoxicity was determined by quantitating the amount of dying cells from the culture medium at day 10.

human osteoclasts [2] = experiment: osteoclast activity assay (bone resorption on bovine bone slices, CTX/TRACP 5b); assay type: cell-based; details: for concentration of CTX released from bone collagen into the culture medium: resorption phase days 7-10
Protocol: The objective of this study is to investigate the effects of selected test compounds selected on resorbing activity of human osteoclasts in vitro. Bone resorption is studied using a model where human osteoclast precursor cells derived from bone marrow are cultured for 7 days on bovine bone slices and allowed to differentiate into bone-resorbing osteoclasts. At day 7, the culture medium is changed, the test compounds are added, and the formed mature osteoclasts are allowed to resorb bone in an additional 3-day culture period. Tartrate-resistant acid phosphatase isoform 5b activity (TRACP 5b) is measured from the culture medium collected at day 7 as an index of the number of osteoclasts formed in each well during the differentiation period. After the totally 10 days culture period, C-terminal cross-linked telopeptides of type I collagen (CTX) are quantitated from the culture medium as an index of bone resorption. The results are expressed as the resorption index (CTX at day 10/TRACP 5b at day 7), which describes the mean activity of a single osteoclast. In each test, a baseline group without test compounds is included to obtain a baseline value. […] The test system can also be modified by adding the test compounds at the beginning of the culture period to study if the test compounds affect osteoclast differentiation. Osteoprotegerin is used as a reference inhibitor of osteoclast differentiation in such cultures.
Used herein is a method where osteoclast precursor cells derived from human bone marrow are cultured on bovine bone slices. The cells are first allowed to differentiate into mature bone-resorbing osteoclasts, and the formed osteoclasts are then allowed to resorb bone. The system is ideally suitable for determining the effects of test compounds on bone resorption in vitro. Test compounds are added into the cell cultures after the differentiation period, and their effect on the resorbing activity of mature osteoclasts is determined.
as §1
Two separate experiments were performed in this study, an osteoclast differentiation assay and an osteoclast activity assay.

[3] = test system: human osteoclast precursor cells derived from bone marrow; experiment: osteoclast differentiation assay (medium TRACP 5b at day 7); assay type: cell-based
Protocol: The objective of this study is to investigate the effects of selected test compounds selected on resorbing activity of human osteoclasts in vitro. Bone resorption is studied using a model where human osteoclast precursor cells derived from bone marrow are cultured for 7 days on bovine bone slices and allowed to differentiate into bone-resorbing osteoclasts. […] In each test, a baseline group without test compounds is included to obtain a baseline value. […] The test system can also be modified by adding the test compounds at the beginning of the culture period to study if the test compounds affect osteoclast differentiation. Osteoprotegerin is used as a reference inhibitor of osteoclast differentiation in such cultures.
Appropriate dilutions were made from the stock solution to obtain the desired test concentrations (0.1 nM, 1 nM and 10 nM in osteoclast differentiation assay and 1 nM, 10 nM and 100 nM in osteoclast activity assay).

[4] = 1.0 μM E64, Mean of 6 replicates
[5] = Homo sapiens, Osteoclast, read-out: Resorbing activity, % of activity compared with baseline group

CC(C)C[C@H](NC(=O)[C@H]1O[C@@H]1C(=O)O)C(=O)NCCCCN=C(N)N [Compound E64, reference compound]
luminescence released from dying cells during the culture period (human osteoclasts [1]; [4]): 1594 | luminescence released from dying cells during the culture period (human osteoclasts [1]; 1.0 μM E64, single replicate): 1979 and 1666 and 1489 and 1568 and 1355 and 1507 | resorption index CTX at day 10/TRACP 5b at day 7 (human osteoclasts [2]; [4]): 0.45 | concentration of CTX released from bone collagen into the culture medium (human osteoclasts [2]; [4]): 8.44 nM | concentration of CTX released from bone collagen into the culture medium (human osteoclasts [2]; 1.0 μM E64, single replicate): 9.13 nM and 10.96 nM and 7.91 nM and 7.78 nM and 9.39 nM and 5.45 nM | resorption index CTX at day 10/TRACP 5b at day 7 (human osteoclasts [2]; 1.0 μM E64, single replicate): 0.41 (2×) and 0.64 and 0.38 and 0.59 and 0.29

C=CC[C@H]1C(=O)C(C)(C)[C@@H](O)CC(=O)O[C@H](c2ccc3sc(C)nc3c2)C[C@@H]2O[C@]2(C)CCC[C@H](C)[C@@H]1O [EPO-477, (1S,3S,7S,10R,11S,12S,16R)-7,11-dihydroxy-3-(2-methyl-benzothiazol-5-yl)-10-(prop-2-en-1-yl)-8,8,12,16-tetramethyl-4,17-dioxabicyclo[14.1.0]heptadecane-5,9-dione]
medium TRACP 5b activity at day 7 ([3]; 0.1 nM, Mean of 6 replicates, in U/L): 18.24 | medium TRACP 5b activity at day 7 ([3]; 0.1 nM, single replicate, in U/L): 14.72 and 16.43 and 21.41 and 17.57 and 17.37 and 21.95 | medium TRACP 5b activity at day 7 ([3]; 1 nM, Mean of 6 replicates, in U/L): 8.27 | medium TRACP 5b activity at day 7 ([3]; 1 nM, single replicate): 9.20 (2×) and 8.25 and 7.59 and 7.52 and 7.84 | medium TRACP 5b activity at day 7 ([3]; 10 nM, Mean of 6 replicates, in U/L): 2.45 | medium TRACP 5b activity at day 7 ([3]; 10 nM, single replicate, in U/L): 2.88 and 3.02 and 2.34 and 2.15 and 1.93 and 2.41 | luminescence released from dying cells during the culture period (human osteoclasts [1]; 1 nM, Mean of 6 replicates): 1864 | luminescence released from dying cells during the culture period (human osteoclasts [1]; 1 nM, single replicate): 2371 and 1802 and 1966 and 1781 and 1685 and 1577 | Cytotoxicity, % compared with baseline group (human osteoclasts [1]; 2.5 nM): 98% | Cytotoxicity, % compared with baseline group (human osteoclasts [1]; 5 nM): 96% | Cytotoxicity, % compared with baseline group (human osteoclasts [1]; 7.5 nM): 91% | luminescence released from dying cells during the culture period (human osteoclasts [1]; 10 nM, Mean of 6 replicates): 1957 | Cytotoxicity, % compared with baseline group (human osteoclasts [1]; 10 nM): 96% | luminescence released from dying cells during the culture period (human osteoclasts [1]; 10 nM, single replicate): 2193 and 2097 and 2126 and 1815 and 1909 and 1599 | Cytotoxicity, % compared with baseline group (human osteoclasts [1]; 15 nM): 79% | Cytotoxicity, % compared with baseline group (human osteoclasts [1]; 20 nM): 78% | Cytotoxicity, % compared with baseline group (human osteoclasts [1]; 50 nM): 85% | luminescence released from dying cells during the culture period (human osteoclasts [1]; 100 nM, Mean of 6 replicates): 2666 | luminescence released from dying cells during the culture period (human osteoclasts [1]; 100 nM, single replicate): 2837 and 2911 and 2428 and 2741 and 2112 and 2964 | resorption index CTX at day 10/TRACP 5b at day 7 (human osteoclasts [2]; 1 nM, Mean of 6 replicates): 3.31 | concentration of CTX released from bone collagen into the culture medium (human osteoclasts [2]; 1 nM, Mean of 6 replicates): 60.34 nM | concentration of CTX released from bone collagen into the culture medium (human osteoclasts [2]; 1 nM, single replicate): 56.56 nM and 68.03 nM and 54.94 nM and 58.62 nM and 61.84 nM and 62.04 nM | resorption index CTX at day 10/TRACP 5b at day 7 (human osteoclasts [2]; 1 nM, single replicate): 3.32 and 4.36 and 3.20 and 2.98 and 3.09 and 2.90 | resorption index CTX at day 10/TRACP 5b at day 7 (human osteoclasts [2]; 10 nM, Mean of 6 replicates): 1.14 | concentration of CTX released from bone collagen into the culture medium (human osteoclasts [2]; 10 nM, Mean of 6 replicates): 20.16 nM | concentration of CTX released from bone collagen into the culture medium (human osteoclasts [2]; 10 nM, single replicate): 10.31 nM and 31.82 nM and 15.76 nM and 16.61 nM and 29.41 nM and 17.07 nM | resorption index CTX at day 10/TRACP 5b at day 7 (human osteoclasts [2]; 10 nM, single replicate): 0.79 and 1.45 and 0.84 and 1.00 and 1.93 and 0.82 | resorption index CTX at day 10/TRACP 5b at day 7 (human osteoclasts [2]; 100 nM, Mean of 6 replicates): 0.78 | concentration of CTX released from bone collagen into the culture medium (human osteoclasts [2]; 100 nM, Mean of 6 replicates): 13.45 nM | concentration of CTX released from bone collagen into the culture medium (human osteoclasts [2]; 100 nM, single replicate): 15.63 nM and 14.51 nM and 11.55 nM and 16.48 nM and 6.70 nM and 15.83 nM | resorption index CTX at day 10/TRACP 5b at day 7 (human osteoclasts [2]; 100 nM, single replicate): 0.87 and 0.92 and 0.56 and 0.89 and 0.36 and 1.07 | activity at 0.0025 µM (human osteoclasts [2]; [5]): 95% | activity at 0.005 µM (human osteoclasts [2]; [5]): 103% | activity at 0.0075 µM (human osteoclasts [2]; [5]): 109% | activity at 0.01 µM (human osteoclasts [2]; [5]): 79% | activity at 0.015 µM (human osteoclasts [2]; [5]): 45% | activity at 0.02 µM (human osteoclasts [2]; [5]): 62% | activity at 0.05 µM (human osteoclasts [2]; [5]): 38%

CC(=O)O[C@H]1C(=O)[C@@]2(C)[C@H]([C@H](OC(=O)c3ccccc3)[C@]3(O)C[C@H](OC(=O)[C@H](O)[C@@H](NC(=O)c4ccccc4)c4ccccc4)C(C)=C1C3(C)C)[C@]1(OC(C)=O)CO[C@@H]1C[C@@H]2O [Paclitaxel, paclitaxel, reference compound]
Cytotoxicity, % compared with baseline group (human osteoclasts [1]; 2.5 nM): 121% | Cytotoxicity, % compared with baseline group (human osteoclasts [1]; 5 nM): 99% | Cytotoxicity, % compared with baseline group (human osteoclasts [1]; 10 nM): 121% | Cytotoxicity, % compared with baseline group (human osteoclasts [1]; 20 nM): 116% | Cytotoxicity, % compared with baseline group (human osteoclasts [1]; 50 nM): 131% | Cytotoxicity, % compared with baseline group (human osteoclasts [1]; 100 nM): 120% | Cytotoxicity, % compared with baseline group (human osteoclasts [1]; 200 nM): 125% | activity at 0.0025 µM (human osteoclasts [2]; [5]): 109% | activity at 0.005 µM (human osteoclasts [2]; [5]): 98% | activity at 0.01 µM (human osteoclasts [2]; [5]): 87% | activity at 0.02 µM (human osteoclasts [2]; [5]): 95% | activity at 0.05 µM (human osteoclasts [2]; [5]): 64% | activity at 0.1 µM (human osteoclasts [2]; [5]): 57% | activity at 0.2 µM (human osteoclasts [2]; [5]): 72%

B1: OPG: Osteoprotegerin, reference inhibitor of osteoclast differentiation (PeproTech 450-14) (protein, UniProt O00300 22-401, looked up)
Tumor necrosis factor …: ETFPPKYLHYDEETSHQLLCDKCPPGTYLKQHCTAKWKTVCAPCPDHYYTDSWHTSDECLYCSPVCKELQYVKQECNRTHNRVCECKEGRYLEIEFCLKHRSCPPGFGVVQAGTPERNTVCKRCPDGFFSNETSSKAPCRKHTNCSVFGLLLTQKGNATHDNICSGNSESTQKCGIDVTLCEEAFFRFAVPTKFTPNWLSVLVDNLPGTKVNAESVERIKRQHSSQEQTFQLLKLWKHQNKDQDIVKKIIQDIDLCENSVQRHIGHANLTFEQLRSLMESLPGKKVGAEDIEKTIKACKPSDQILKLLSLWRIKNGDQDTLKGLMHALKHSKTYHFPKTVTQSLKKTIRFLHSFTMYKLYQKLFLEMIGNQVQSVKISCL
medium TRACP 5b activity at day 7 ([3]; 100 ng/ml OPG, Mean of 6 replicates, in U/L): 8.59 | medium TRACP 5b activity at day 7 ([3]; 100 ng/ml OPG, single replicate, in U/L): 4.46 and 10.67 and 10.53 and 10.19 and 5.70 and 10.00
